In the supplement of paper PMC10307832:

Assays:
Assay in all cases: relative viability (nuclei count vs DMSO), 5 days (fraction); higher = more cells survive
[1] = compound: CCn1c(-c2nonc2N)nc2cnc(Oc3cccc(NC(=O)c4ccc(OCCN5CCOCC5)cc4)c3)cc21 + O=C(CCCCCCC(=O)Nc1ccccc1)NO [Vorinostat] (partner 1 µM)
Summary of the method: (§1)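 Relative viability divides the nuclei count in treated wells by that in vehicle wells. Lung cancer cell lines were seeded in 1536-well plates, dosed by pin tool the next day, and fixed and stained after 5 days in one step with final 0.05% Triton X-100, 1% formaldehyde and 1 ug/ml Hoechst. Dosing was a single drug or a fixed anchor-drug dose plus five library-drug doses (not always all listed) in √10 steps, and values are medians of duplicate plates imaged at 4×.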

[2] = compound: N=C1NC(=O)/C(=C/c2ccc(O)cc2)S1 [Mirin] + O=C(CCCCCCC(=O)Nc1ccccc1)NO [Vorinostat] (partner 1 µM)
Summary of the method: as §1

[3] = compound: CCn1c(-c2nonc2N)nc2cnc(Oc3cccc(NC(=O)c4ccc(OCCN5CCOCC5)cc4)c3)cc21 + Nc1ncn([C@H]2C[C@H](O)[C@@H](CO)O2)c(=O)n1 [Decitabine] (partner 2 µM)
Summary of the method: as §1

[4] = compound: CCn1c(-c2nonc2N)nc2cnc(Oc3cccc(NC(=O)c4ccc(OCCN5CCOCC5)cc4)c3)cc21 + C[C@@H](Oc1cc(-c2cnn(C3CCNCC3)c2)cnc1N)c1c(Cl)ccc(F)c1Cl [Crizotinib] (partner 1 µM)
Summary of the method: as §1

Cell Line	relative viability ([1]; first compound 0.04 µM)	relative viability ([1]; first compound 0.1265 µM)	relative viability ([1]; first compound 0.4 µM)	relative viability ([1]; first compound 1.265 µM)	relative viability ([1]; first compound 4 µM)	relative viability ([2]; first compound 0.25 µM)	relative viability ([2]; first compound 0.7906 µM)	relative viability ([2]; first compound 2.5 µM)	relative viability ([2]; first compound 7.906 µM)	relative viability ([2]; first compound 25 µM)	relative viability ([3]; first compound 0.04 µM)	relative viability ([3]; first compound 0.1265 µM)	relative viability ([3]; first compound 0.4 µM)	relative viability ([3]; first compound 1.265 µM)	relative viability ([3]; first compound 4 µM)	relative viability ([4]; first compound 0.04 µM)	relative viability ([4]; first compound 0.1265 µM)	relative viability ([4]; first compound 0.4 µM)	relative viability ([4]; first compound 1.265 µM)	relative viability ([4]; first compound 4 µM)
RERF-LC-KJ	0.762	0.728	0.589	0.409	0.521	0.565	0.816	0.686	0.709	0.664	0.621	0.695	0.588	0.452	0.29	0.886	0.822	0.82	0.535	0.36
H3255	0.92	0.743	0.686	0.618	0.568	0.547	0.678	0.846	0.789	0.814	0.774	0.594	0.63	0.403	0.518	1.13	0.815	0.725	0.49	0.637
EMC-BAC-2	0.438	0.297	0.159	0.147	0.167	0.426	0.402	0.493	0.35	0.6	0.957	0.894	0.771	0.386	0.465	0.904	0.823	0.789	0.733	0.701
NCI-H661	0.891	0.906	0.888	0.627	0.517	0.789	0.839	0.74	0.776	0.77	0.498	0.559	0.406	0.448	0.33	0.993	1.05	1.13	0.694	0.86
